Experimental data: US20250108034A1, “EYE DROP FORMULATION” (priority 2021, published 2025)
One block for each molecule: values may come before it.

Assays:
[1] = test system: conjunctival and corneal surface of rabbit eyes; assay: Ocular administration of cyclodextrins to rabbit eyes (irritation/tolerability); settings: concentrations of 5 and 12.5%
[2] = Stability study (shelf-life) of ASP and ASP-CD complexes in physiological saline; type: physicochemical; settings: for Shelf-life (t90%): physiological saline
Procedure: The determination of ASP concentration was performed with HPLC using an Agilent 1260 (Agilent Technologies, Santa Clara, USA). As stationary phase a Zorbax Eclipse© C18 column 100×4.6 mm, 5 μm (Phenomenex, Torrance, CA, USA) was applied. Isocratic elution with purified water and methanol 10:90 (v/v) was applied for 6 min at a flow rate of 1.0 mL/min at 25° C. 10 μL of the samples were injected to determine the ASP concentration. The chromatograms were detected at 255 nm using UV-VIS diode array detector. Data were evaluated using ChemStation B.04.03. Software (Agilent Technologies, Santa Clara, USA). […] Chemical stability of ASP and ASP-CD complexes was investigated in physiological saline at room condition (25±0.5° C.) and cold place condition (4±0.5° C.) for 5 days. Actual drug content was quantified using HPLC in predetermined time intervals to predict shelf-life of formulations.

[3] = test system: conjunctival and corneal surface of rabbit eyes; settings: in vivo
[4] = Ex vivo corneal drug permeation with Raman mapping; type: in vitro ADME, porcine; settings: after 15 min treatment, compared to 5 min treatment
Procedure: The ex vivo penetration of ASP was examined with HPLC and Raman microscopy. Freshly donated porcine eyes obtained from the slaughterhouse was placed on a sterile cotton wool bed moistened with physiological saline solution and kept in refrigerator box during the transportation. The porcine eye was placed into a Teflon cell, where the cornea was uncovered and surrounded by a Teflon ring to prevent the flow of eye drops. The cornea was instilled with 1000 μL of physiological saline solution and 50 μL of ASP-CD formulation was added to the covering saline solution, which can imitate physiological dilution caused by tear fluid and incubated at 35° C. […] ASP content in the residual solution, aqueous humour and cornea was determined with HPLC. The corneal retention of AS was calculated according to Eq. 2., whereas apparent permeability by using the following equation: […]
Raman mapping was carried out to examine the distribution of selected ASP-CD formulation and initial ASP on porcine cornea. […] For localization of permeated formulation, the Raman spectra of ASP was set as profile, whose frequency of occurrence was determined by measuring the relative intensity of ASP in the Raman maps with ImageJ 1.4 software (National Institutes of Health, Bethesda, MD, USA).

Molecule: randomly substituted methyl-beta-cyclodextrin [RAMEB]
Ocular irritation [1]: irritating

Effect of BC on the shelf-life ([2]; 0.004 and 0.008% BC): no significant effect
Molecule: benzalkonium chloride [BC]

Molecule: CC(O)COC[C@H]1O[C@@H]2O[C@H]3[C@H](O)[C@@H](O)[C@@H](O[C@H]4[C@H](O)[C@@H](O)[C@@H](O[C@H]5[C@H](O)[C@@H](O)[C@@H](O[C@H]6[C@H](O)[C@@H](O)[C@@H](O[C@H]7[C@H](O)[C@@H](O)[C@@H](O[C@H]8[C@H](O)[C@@H](O)[C@@H](O[C@H]1[C@H](O)[C@H]2O)O[C@@H]8COCC(C)O)O[C@@H]7COCC(C)O)O[C@@H]6COCC(C)O)O[C@@H]5COCC(C)O)O[C@@H]4COCC(C)O)O[C@@H]3COCC(C)O (stereo partly drawn) [HPBCD, (2-Hydroxypropyl)-beta-cyclodextrin]
Ocular tolerability [3]: well tolerated

Shelf-life (t90%) ([2]; stored at 4° C.): 4.58 h
Shelf-life (t90%) ([2]; stored at 25° C.): 8.37 h
Relative intensity of ASP in Raman maps [4]: increased
Molecule: CCCCCCCCCCCCCCCC(=O)OC[C@H](O)[C@H]1OC(=O)C(O)=C1O [ASP, L-Ascorbic acid 6-palmitate]
